Numbered stars: 1 amine (or outer) side, 2 acyl side, 3 side chain; on linkers, the order of the positions; unused ones are H or OH. Square brackets hold non-standard residues; d marks the D form. Side chains are listed from the residue outwards. Peptide text beside a SMILES is read from it. * marks the point of attachment. C20 diacid = O=C(O)CCCCCCCCCCCCCCCCCCC(=O)*; C18 diacid = O=C(O)CCCCCCCCCCCCCCCCC(=O)*; γGlu = O=C(O)[C@H](CCC(=O)[*:2])N[*:1]; AEEA = NCCOCCOCC(=O)O; Aib = CC(C)(N)C(=O)O

EC50 data for six compounds are collected here from patent US12252524B2, “GIP/GLP1 co-agonist compounds” (Eli Lilly and Company, priority 2018, dated 2025).

The target of test [1] is human GLP-1 receptor (GLP-1R) (Homo sapiens, UniProt P43220). Description: cAMP pharmacological functional assay in presence of casein, hGLP-1R. It is filed as cell-based. As to conditions: HEK293 cells expressing hGLP-1R, 0.1% Casein, geometric mean; read-out: hGLP1R cAMP Rel EC50 nM (SEM, n).
Sequence of human GLP-1 receptor (GLP-1R) (P43220 24-463): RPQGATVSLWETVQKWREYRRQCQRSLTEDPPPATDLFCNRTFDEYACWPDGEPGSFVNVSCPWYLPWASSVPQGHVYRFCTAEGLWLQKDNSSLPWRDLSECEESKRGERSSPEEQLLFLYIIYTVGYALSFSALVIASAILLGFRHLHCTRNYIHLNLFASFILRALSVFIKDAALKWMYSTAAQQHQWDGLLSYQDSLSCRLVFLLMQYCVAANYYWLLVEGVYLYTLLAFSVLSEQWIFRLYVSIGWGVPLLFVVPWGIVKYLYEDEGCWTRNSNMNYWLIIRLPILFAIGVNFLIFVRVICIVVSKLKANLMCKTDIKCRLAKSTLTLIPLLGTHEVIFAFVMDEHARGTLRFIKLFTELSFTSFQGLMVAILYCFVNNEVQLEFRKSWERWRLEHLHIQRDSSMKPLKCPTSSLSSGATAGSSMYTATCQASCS
The target of test [2] is T1, gastric inhibitory peptide receptor (GIPR) (Homo sapiens, UniProt P48546).
T1 sequence (P48546 22-466): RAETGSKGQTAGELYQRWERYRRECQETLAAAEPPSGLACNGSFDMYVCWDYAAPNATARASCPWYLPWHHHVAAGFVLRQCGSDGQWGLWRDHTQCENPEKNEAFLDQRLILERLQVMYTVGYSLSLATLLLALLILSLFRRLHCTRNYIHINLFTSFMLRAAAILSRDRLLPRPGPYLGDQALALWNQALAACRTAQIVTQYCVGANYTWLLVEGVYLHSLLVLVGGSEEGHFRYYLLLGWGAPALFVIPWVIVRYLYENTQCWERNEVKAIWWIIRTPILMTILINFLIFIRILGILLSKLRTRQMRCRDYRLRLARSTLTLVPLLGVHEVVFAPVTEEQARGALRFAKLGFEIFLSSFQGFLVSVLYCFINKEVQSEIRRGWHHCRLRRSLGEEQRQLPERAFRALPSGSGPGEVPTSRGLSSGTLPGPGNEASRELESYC
As to the kind of experiment: cAMP pharmacological functional assay in presence of casein, hGIPR. It is filed as cell-based. As to conditions: HEK293 cells expressing hGIPR, 0.1% Casein, geometric mean; read-out: hGIPR cAMP Rel EC50 nM (SEM, n).

In the case of `CC[C@H](C)[C@H](NC(=O)[C@H](CC(C)C)NC(=O)[C@H](Cc1ccc(O)cc1)NC(=O)[C@H](CCC(=O)O)NC(=O)[C@@H](NC(=O)[C@H](Cc1ccccc1)NC(=O)[C@H](C)NC(=O)C(C)(C)NC(=O)[C@H](CCC(N)=O)NC(=O)[C@H](C)NC(=O)[C@H](CCCCNC(=O)COCCOCCNC(=O)COCCOCCNC(=O)CC[C@H](NC(=O)CCCCCCCCCCCCCCCCCCC(=O)O)C(=O)O)NC(=O)[C@H](CCC(=O)O)NC(=O)[C@H](CC(=O)O)NC(=O)[C@H](CC(C)C)NC(=O)[C@H](CC(C)C)NC(=O)[C@@H](NC(=O)[C@H](CO)NC(=O)[C@H](Cc1ccc(O)cc1)NC(=O)[C@H](CC(=O)O)NC(=O)[C@H](CO)NC(=O)[C@@H](NC(=O)[C@H](Cc1ccccc1)NC(=O)[C@@H](NC(=O)CNC(=O)[C@H](CCC(=O)O)NC(=O)C(C)(C)NC(=O)[C@@H](N)Cc1ccc(O)cc1)[C@@H](C)O)[C@@H](C)O)[C@@H](C)CC)[C@@H](C)CC)C(=O)N[C@@H](CCC(=O)O)C(=O)NCC(=O)NCC(=O)N1CCC[C@H]1C(=O)N[C@@H](CO)C(=O)N[C@@H](CO)C(=O)NCC(=O)N[C@@H](C)C(=O)N1CCC[C@H]1C(=O)N1CCC[C@H]1C(=O)N1CCC[C@H]1C(=O)N[C@@H](CO)C(N)=O` [Example 259] (H-Y[Aib]EGTFTSDYSILLDEK([AEEA-AEEA-γGlu-C20 diacid])AQ[Aib]AFIEYLIEGGPSSGAPPPS-NH2; N-terminus assumed), the EC50 in test [1] came out at 0.145 nM; in test [2], 0.257 nM.

In the case of `CC[C@H](C)[C@H](NC(=O)[C@H](CC(C)C)NC(=O)[C@H](Cc1ccc(O)cc1)NC(=O)[C@H](CCC(=O)O)NC(=O)[C@@H](NC(=O)[C@H](Cc1ccccc1)NC(=O)[C@H](C)NC(=O)C(C)(C)NC(=O)[C@H](CCC(N)=O)NC(=O)[C@H](C)NC(=O)[C@H](CCCCNC(=O)COCCOCCNC(=O)COCCOCCNC(=O)CC[C@H](NC(=O)CCCCCCCCCCCCCCCCCCC(=O)O)C(=O)O)NC(=O)[C@H](CCCCN)NC(=O)[C@H](CC(=O)O)NC(=O)[C@H](CC(C)C)NC(=O)[C@H](CC(C)C)NC(=O)[C@@H](NC(=O)[C@H](CO)NC(=O)[C@H](Cc1c[nH]cn1)NC(=O)[C@H](CC(=O)O)NC(=O)[C@H](CO)NC(=O)[C@@H](NC(=O)[C@H](Cc1ccccc1)NC(=O)[C@@H](NC(=O)CNC(=O)[C@H](CCC(=O)O)NC(=O)C(C)(C)NC(=O)[C@@H](N)Cc1ccc(O)cc1)[C@@H](C)O)[C@@H](C)O)[C@@H](C)CC)[C@@H](C)CC)C(=O)N[C@@H](CCC(=O)O)C(=O)NCC(=O)NCC(=O)N1CCC[C@H]1C(=O)N[C@@H](CO)C(=O)N[C@@H](CO)C(=O)NCC(=O)N[C@@H](C)C(=O)N1CCC[C@H]1C(=O)N1CCC[C@H]1C(=O)N1CCC[C@H]1C(=O)N[C@@H](CO)C(N)=O` [Example 260] (H-Y[Aib]EGTFTSDHSILLDKK([AEEA-AEEA-γGlu-C20 diacid])AQ[Aib]AFIEYLIEGGPSSGAPPPS-NH2; N-terminus assumed), the EC50 was determined as 0.408 nM in test [1] and 0.617 nM in test [2].

`CC[C@H](C)[C@H](NC(=O)[C@H](CC(C)C)NC(=O)[C@H](Cc1ccc(O)cc1)NC(=O)[C@H](CCC(=O)O)NC(=O)[C@@H](NC(=O)[C@H](Cc1ccccc1)NC(=O)[C@H](C)NC(=O)[C@H](CCC(=O)O)NC(=O)[C@H](CCC(N)=O)NC(=O)[C@H](C)NC(=O)[C@H](CCCCNC(=O)COCCOCCNC(=O)COCCOCCNC(=O)CC[C@H](NC(=O)CCCCCCCCCCCCCCCCCCC(=O)O)C(=O)O)NC(=O)[C@H](CCCCN)NC(=O)[C@H](CC(=O)O)NC(=O)[C@H](CC(C)C)NC(=O)[C@H](CC(C)C)NC(=O)[C@@H](NC(=O)[C@H](CO)NC(=O)[C@H](Cc1ccc(O)cc1)NC(=O)[C@H](CC(=O)O)NC(=O)[C@H](CO)NC(=O)[C@@H](NC(=O)[C@H](Cc1ccccc1)NC(=O)[C@@H](NC(=O)CNC(=O)[C@H](CCC(=O)O)NC(=O)C(C)(C)NC(=O)[C@@H](N)Cc1ccc(O)cc1)[C@@H](C)O)[C@@H](C)O)[C@@H](C)CC)[C@@H](C)CC)C(=O)N[C@@H](CCC(=O)O)C(=O)NCC(=O)NCC(=O)N1CCC[C@H]1C(=O)N[C@@H](CO)C(=O)N[C@@H](CO)C(=O)NCC(=O)N[C@@H](C)C(=O)N1CCC[C@H]1C(=O)N1CCC[C@H]1C(=O)N1CCC[C@H]1C(=O)N[C@@H](CO)C(N)=O` [Example 261] (H-Y[Aib]EGTFTSDYSILLDKK([AEEA-AEEA-γGlu-C20 diacid])AQEAFIEYLIEGGPSSGAPPPS-NH2): the half-maximal effective concentration (EC50) in test [1] came to 0.0948 nM; in test [2], 0.16 nM.

On to `CC[C@H](C)[C@H](NC(=O)[C@H](CC(C)C)NC(=O)[C@H](Cc1ccc(O)cc1)NC(=O)[C@H](CCC(=O)O)NC(=O)[C@@H](NC(=O)[C@H](Cc1ccccc1)NC(=O)[C@H](C)NC(=O)[C@@H](NC(=O)[C@H](CCC(N)=O)NC(=O)[C@H](C)NC(=O)[C@H](CCCCNC(=O)COCCOCCNC(=O)COCCOCCNC(=O)CC[C@H](NC(=O)CCCCCCCCCCCCCCCCCCC(=O)O)C(=O)O)NC(=O)[C@H](CCCCN)NC(=O)[C@H](CC(=O)O)NC(=O)[C@H](CC(C)C)NC(=O)[C@H](CC(C)C)NC(=O)[C@@H](NC(=O)[C@H](CO)NC(=O)[C@H](Cc1ccc(O)cc1)NC(=O)[C@H](CC(=O)O)NC(=O)[C@H](CO)NC(=O)[C@@H](NC(=O)[C@H](Cc1ccccc1)NC(=O)[C@@H](NC(=O)CNC(=O)[C@H](CCC(=O)O)NC(=O)C(C)(C)NC(=O)[C@@H](N)Cc1ccc(O)cc1)[C@@H](C)O)[C@@H](C)O)[C@@H](C)CC)[C@@H](C)O)[C@@H](C)CC)C(=O)N[C@@H](CCC(=O)O)C(=O)NCC(=O)NCC(=O)N1CCC[C@H]1C(=O)N[C@@H](CO)C(=O)N[C@@H](CO)C(=O)NCC(=O)N[C@@H](C)C(=O)N1CCC[C@H]1C(=O)N1CCC[C@H]1C(=O)N1CCC[C@H]1C(=O)N[C@@H](CO)C(N)=O` [Example 262] (H-Y[Aib]EGTFTSDYSILLDKK([AEEA-AEEA-γGlu-C20 diacid])AQTAFIEYLIEGGPSSGAPPPS-NH2), for which the EC50 in test [1] is 0.0943 nM; in test [2] it was 0.13 nM.

As for `CC[C@H](C)[C@H](NC(=O)[C@H](CC(C)C)NC(=O)[C@H](Cc1ccc(O)cc1)NC(=O)[C@H](CCC(=O)O)NC(=O)[C@@H](NC(=O)[C@H](Cc1ccccc1)NC(=O)[C@H](C)NC(=O)[C@H](CO)NC(=O)[C@H](CCC(N)=O)NC(=O)[C@H](C)NC(=O)[C@H](CCCCNC(=O)COCCOCCNC(=O)COCCOCCNC(=O)CC[C@H](NC(=O)CCCCCCCCCCCCCCCCCCC(=O)O)C(=O)O)NC(=O)[C@H](CCCCN)NC(=O)[C@H](CC(=O)O)NC(=O)[C@H](CC(C)C)NC(=O)[C@H](CC(C)C)NC(=O)[C@@H](NC(=O)[C@H](CO)NC(=O)[C@H](Cc1ccc(O)cc1)NC(=O)[C@H](CC(=O)O)NC(=O)[C@H](CO)NC(=O)[C@@H](NC(=O)[C@H](Cc1ccccc1)NC(=O)[C@@H](NC(=O)CNC(=O)[C@H](CCC(=O)O)NC(=O)C(C)(C)NC(=O)[C@@H](N)Cc1ccc(O)cc1)[C@@H](C)O)[C@@H](C)O)[C@@H](C)CC)[C@@H](C)CC)C(=O)N[C@@H](CCC(=O)O)C(=O)NCC(=O)NCC(=O)N1CCC[C@H]1C(=O)N[C@@H](CO)C(=O)N[C@@H](CO)C(=O)NCC(=O)N[C@@H](C)C(=O)N1CCC[C@H]1C(=O)N1CCC[C@H]1C(=O)N1CCC[C@H]1C(=O)N[C@@H](CO)C(N)=O` [Example 263] (H-Y[Aib]EGTFTSDYSILLDKK([AEEA-AEEA-γGlu-C20 diacid])AQSAFIEYLIEGGPSSGAPPPS-NH2), the figures for the EC50 in test [1] and in test [2] were 0.0785 nM and 0.317 nM, respectively.

Turning to `CC[C@H](C)[C@H](NC(=O)[C@H](CC(C)C)NC(=O)[C@H](Cc1ccc(O)cc1)NC(=O)[C@H](CCC(=O)O)NC(=O)[C@@H](NC(=O)[C@H](Cc1ccccc1)NC(=O)[C@H](C)NC(=O)[C@@H]1CCCN1C(=O)[C@H](CCC(N)=O)NC(=O)[C@H](C)NC(=O)[C@H](CCCCNC(=O)COCCOCCNC(=O)COCCOCCNC(=O)CC[C@H](NC(=O)CCCCCCCCCCCCCCCCC(=O)O)C(=O)O)NC(=O)[C@H](CCCCN)NC(=O)[C@H](CC(=O)O)NC(=O)[C@H](CC(C)C)NC(=O)[C@H](CC(C)C)NC(=O)[C@@H](NC(=O)[C@H](CO)NC(=O)[C@H](Cc1ccc(O)cc1)NC(=O)[C@H](CC(=O)O)NC(=O)[C@H](CO)NC(=O)[C@@H](NC(=O)[C@H](Cc1ccccc1)NC(=O)[C@@H](NC(=O)CNC(=O)[C@H](CCC(=O)O)NC(=O)C(C)(C)NC(=O)[C@@H](N)Cc1ccc(O)cc1)[C@@H](C)O)[C@@H](C)O)[C@@H](C)CC)[C@@H](C)CC)C(=O)N[C@@H](CCC(=O)O)C(=O)NCC(=O)NCC(=O)N1CCC[C@H]1C(=O)N[C@@H](CO)C(=O)N[C@@H](CO)C(=O)NCC(N)=O` [Example 274] (H-Y[Aib]EGTFTSDYSILLDKK([AEEA-AEEA-γGlu-C18 diacid])AQPAFIEYLIEGGPSSG-NH2), the concentration giving a half-maximal response (EC50) is 14.5 nM in test [1] and > 30 nM in test [2].
